Paper PMC8470988, “Glucosylation of (±)-Menthol by Uridine-Diphosphate-Sugar Dependent Glucosyltransferases from Plants” (Molecules, 2021)

Biological target: T1, UGT93Y1 (Camellia sinensis, UniProt A0A4S4F2U3)
T1 construct: gene TEA_008645; UGT 467 aa, fusion about 80 kDa; His29, Asp134, PSPG box Trp342-Gln385, TSS 413-415
Test: UDP Glo glycosyltransferase assay
Format: biochemical
Settings: UDP-glucose as donor; 30 °C; 0-1000 µM menthol; kinetic fit with substrate inhibition, two-site sequential model with identical dissociation constants

T1 sequence (A0A4S4F2U3 entry or part of it): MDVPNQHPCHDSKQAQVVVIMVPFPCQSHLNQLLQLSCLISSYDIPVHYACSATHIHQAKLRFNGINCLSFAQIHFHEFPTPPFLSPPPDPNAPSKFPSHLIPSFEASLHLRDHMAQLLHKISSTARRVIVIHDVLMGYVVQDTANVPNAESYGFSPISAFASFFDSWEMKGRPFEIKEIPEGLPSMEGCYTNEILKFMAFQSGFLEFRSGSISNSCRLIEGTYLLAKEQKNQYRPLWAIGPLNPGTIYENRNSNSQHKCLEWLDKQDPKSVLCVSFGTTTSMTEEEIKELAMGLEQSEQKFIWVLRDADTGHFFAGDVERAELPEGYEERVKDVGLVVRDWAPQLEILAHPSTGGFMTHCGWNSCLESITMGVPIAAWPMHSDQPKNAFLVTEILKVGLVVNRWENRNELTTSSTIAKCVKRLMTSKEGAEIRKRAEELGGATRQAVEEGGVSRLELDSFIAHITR

## CC1CCC(C(C)C)C(O)C1 (racemic) [(±)-menthol]
  Kd: 453 µM
